pIC50: −log10 of the molar value.
Legend:
[1] = target: T1, CD73 enzymatic activity expressed on the cell surface of MDA-MB-231 cells (Homo sapiens, UniProt P21589); experiment: Inhibition of CD73 enzymatic activity on the cell surface (Cell Titer Glo (CTG) experiment), MDA-MB-231 cells; assay type: cell-based; settings: MDA-MB-231 cells endogenously expressing CD73, AMP, 37° C. for 2 hours, CTG readout; read-out: Cellular activity IC50
T1 construct: Human breast cancer cells MDA-MB-231 that endogenously express CD73 were used; host or cells: MDA-MB-231
T1 sequence (P21589 27-549): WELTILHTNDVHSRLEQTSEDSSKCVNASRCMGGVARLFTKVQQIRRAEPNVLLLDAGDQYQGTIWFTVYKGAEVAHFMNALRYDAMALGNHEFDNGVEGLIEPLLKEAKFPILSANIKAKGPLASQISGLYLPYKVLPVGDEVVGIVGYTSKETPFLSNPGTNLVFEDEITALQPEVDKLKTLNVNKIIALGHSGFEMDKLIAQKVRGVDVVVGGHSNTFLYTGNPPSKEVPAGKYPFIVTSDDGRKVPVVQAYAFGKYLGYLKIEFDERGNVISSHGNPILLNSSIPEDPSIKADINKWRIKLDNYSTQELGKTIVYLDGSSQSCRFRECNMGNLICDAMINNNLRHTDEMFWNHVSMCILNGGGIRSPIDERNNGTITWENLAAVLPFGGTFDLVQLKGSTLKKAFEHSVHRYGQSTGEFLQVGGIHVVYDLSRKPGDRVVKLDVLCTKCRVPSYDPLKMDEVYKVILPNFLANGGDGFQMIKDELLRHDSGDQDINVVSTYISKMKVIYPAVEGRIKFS
Outline: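 MDA-MB-231 cells with endogenous CD73 were washed serum-free, preincubated with compound for 15 min, then given AMP (1.2 mM stock) for 2 h at 37° C. Remaining AMP in the supernatant was read by CellTiter-Glo with added ATP. IC50 came from a four-parameter logistic fit.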

[2] = target: T2, CD73 (Homo sapiens, UniProt P21589); experiment: In vitro enzymatic activity against CD73 (malachite green test using soluble CD73); assay type: biochemical; settings: soluble CD73 36 ng/mL, 50 μM AMP, 30 minutes at 25° C.
T2 construct: purchased R&D systems 5795-EN-010
T2 sequence (P21589 27-547 limits assumed): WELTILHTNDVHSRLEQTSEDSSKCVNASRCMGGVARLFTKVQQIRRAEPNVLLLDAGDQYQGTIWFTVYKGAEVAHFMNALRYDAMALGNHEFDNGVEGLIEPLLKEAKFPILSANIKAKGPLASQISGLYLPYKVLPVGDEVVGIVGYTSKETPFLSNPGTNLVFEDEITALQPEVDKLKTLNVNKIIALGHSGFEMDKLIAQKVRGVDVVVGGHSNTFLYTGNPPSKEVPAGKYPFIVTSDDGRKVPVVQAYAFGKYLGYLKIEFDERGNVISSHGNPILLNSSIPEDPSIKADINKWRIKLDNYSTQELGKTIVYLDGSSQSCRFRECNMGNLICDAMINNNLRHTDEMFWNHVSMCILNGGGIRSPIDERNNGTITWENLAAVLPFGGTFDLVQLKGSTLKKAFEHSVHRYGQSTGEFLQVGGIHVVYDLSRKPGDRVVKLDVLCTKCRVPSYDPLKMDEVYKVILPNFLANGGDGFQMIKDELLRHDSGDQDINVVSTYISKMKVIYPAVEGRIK
Outline: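 Soluble recombinant CD73 (36 ng/mL) incubated with compound and 50 μM AMP for 30 min at 25 °C in 25 mM Tris pH 7.5, 5 mM MgCl2, 0.005% Tween-20. Released inorganic phosphate read by malachite green; IC50 from non-linear regression of % inhibition.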

pIC50 [1]: 9.13
pIC50 [2]: 7.20
SMILES: O=P(O)(O)CP(=O)(O)OC[C@H]1C[C@@H](c2ccc3c(N[C@@H]4CCc5cc(C(F)(F)F)ccc54)nc(Cl)nn23)[C@H](O)[C@@H]1O [Example 39, (((((1R,2R,3S,4S)-4-(2-chloro-4-(((R)-5-(trifluoromethyl)-2,3-dihydro-1H-inden-1-yl)amino)pyrrolo[2,1-f][1,2,4]triazin-7-yl)-2,3-dihydroxycyclopentyl)methoxy)(hydroxy)phosphoryl)methyl)phosphonic acid]

Source: US12157755B2, “CD73 inhibitor, preparation method therefor and application thereof” (Abbisko Therapeutics Co., Ltd., priority 2019, dated 2024)
